The term EC50 denotes the concentration that produces a half-maximal response. Higher therefore signals lower potency in that assay.

In the first assay the target is T1, TRPM8 (Homo sapiens, UniProt Q7Z2W7).
T1 construct: expressed in transfected cells
T1 sequence (Q7Z2W7 whole entry): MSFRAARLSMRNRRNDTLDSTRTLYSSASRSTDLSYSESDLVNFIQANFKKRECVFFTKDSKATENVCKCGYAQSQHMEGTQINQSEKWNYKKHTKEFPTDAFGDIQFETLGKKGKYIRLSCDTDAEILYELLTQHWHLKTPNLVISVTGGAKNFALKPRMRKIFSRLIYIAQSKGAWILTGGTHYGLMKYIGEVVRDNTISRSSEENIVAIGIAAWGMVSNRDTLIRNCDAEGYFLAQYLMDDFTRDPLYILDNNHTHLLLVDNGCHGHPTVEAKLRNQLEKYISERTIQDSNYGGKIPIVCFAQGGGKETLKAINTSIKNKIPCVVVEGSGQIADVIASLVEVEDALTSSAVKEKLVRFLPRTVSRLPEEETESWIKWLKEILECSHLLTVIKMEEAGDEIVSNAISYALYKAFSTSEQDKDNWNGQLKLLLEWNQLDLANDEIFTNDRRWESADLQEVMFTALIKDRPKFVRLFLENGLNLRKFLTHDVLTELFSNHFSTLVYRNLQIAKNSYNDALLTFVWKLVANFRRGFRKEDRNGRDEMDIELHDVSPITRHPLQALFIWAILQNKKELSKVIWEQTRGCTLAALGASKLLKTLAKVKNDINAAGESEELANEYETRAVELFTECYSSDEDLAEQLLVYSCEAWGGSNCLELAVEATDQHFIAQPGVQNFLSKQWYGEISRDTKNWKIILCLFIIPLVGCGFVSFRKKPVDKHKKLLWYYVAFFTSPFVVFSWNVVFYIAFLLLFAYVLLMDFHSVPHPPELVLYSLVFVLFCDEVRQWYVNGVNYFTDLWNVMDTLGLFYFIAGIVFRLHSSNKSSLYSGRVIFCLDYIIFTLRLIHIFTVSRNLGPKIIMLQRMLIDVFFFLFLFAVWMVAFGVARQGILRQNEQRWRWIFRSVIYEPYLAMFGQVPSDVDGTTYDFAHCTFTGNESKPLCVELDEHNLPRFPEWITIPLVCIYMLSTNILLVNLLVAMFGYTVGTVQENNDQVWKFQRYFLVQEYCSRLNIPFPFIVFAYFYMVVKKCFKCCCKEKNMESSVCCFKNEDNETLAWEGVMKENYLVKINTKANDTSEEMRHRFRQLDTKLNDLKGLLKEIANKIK
In words: Ca2+ fluorimetry assay in CHO cell line stably expressing TRPM8. Type of assay: cell-based. The settings on record: 10 μM; CHO cells stably expressing TRPM8; Fluo-4NW fluorescence. How it is done:
The cells were cultured in monolayer in EMEM medium (Earle's minimum essential medium with Earle's salts, Invitrogen) supplemented with 10% foetal bovine serum (FBS), 2 mM L-glutamine, 1% penicillin-streptomycin solution and […] of the Geneticin antibiotic (Sigma) and kept at 37° C. in a humidified atmosphere with 5% of CO2. Ca^2+ fluorimetry assays were carried out in order to determine the efficacy of the compounds on the TRPM8 channels. The cells were seeded in 96-well plates with a density of 25,000 cells per well. Three days after seeding, the medium was removed and 100 μl of the Fluo-4NW fluorescent probe from Invitrogen was added with a concentration of 5 μM in the presence of 0.02% pluronic acid; after 60 minutes of incubation at 37° C. in a humidified atmosphere with 5% of CO2, the fluorescence was measured in a microplate reader (POLARstar Omega) with a configuration of 485 nm for the excitation and 520 nm for the emission, during 20 cycles. […] In the wells that were used as negative controls, 1 μl of AMTB [N-(3-aminopropyl)-2-[(3-methylphenyl)methoxy]-N-(2-thienylmethyl)benzamide] was added to obtain a final concentration of 10 μM, to block the TRPM8 channels.
The amplitudes of the Ca^2+ increases, caused by the stimulation of the cells with the compounds, were measured by subtracting the basal fluorescence signal (mean intensity obtained before adding the compound) from the fluorescence peak obtained after applying the compounds. The obtained results were adjusted to a sigmoid function using the software suite of the GraphPad Prism computer program.
In turn, `CC(C)[C@@H]1CC[C@@H](C)C[C@H]1n1cc(-c2cccc3ccccc23)nn1` [TZM-8, 1-((1R,2S,5R)-2-isopropyl-5-methylcyclohexyl)-4-(naphthalene-1-yl)-1H-1,2,3-triazole] gave an activation at 10 µM of 56.5 ± 29.7%. Same read-out and setting: next, `COc1cccc(C(=O)c2cn([C@@H]3C[C@H](C)CC[C@H]3C(C)C)nn2)c1` [TZM-19, (1-((1R,2S,5R)-2-isopropyl-5-methylcyclohexyl)-1H-1,2,3-triazole-4-yl) (3-methoxyphenyl)methanone]: 40.8 ± 9.01%. On the same count and under the same terms, to `CC(C)[C@@H]1CC[C@@H](C)C[C@H]1n1cc(C(=O)c2ccc(Oc3ccccc3)cc2)nn1` [TZM-13, (1-((1R,2S,5R)-2-isopropyl-5-methylcyclohexyl)-1H-1,2,3-triazole-4-yl) (4-phenoxyphenyl)methanone] belongs 46.5 ± 6.57%; to `CC(C)[C@@H]1CC[C@@H](C)C[C@H]1n1cc(C(=O)c2ccc(-c3ccccc3)cc2)nn1` [TZM-17, [1,1′-biphenyl]-4-yl(1-((1R,2S,5R)-2-isopropyl-5-methylcyclohexyl)-1H-1,2,3-triazole-4-yl)methanone], 42 ± 4.53%; to `CC(C)[C@@H]1CC[C@@H](C)C[C@H]1n1cc(-c2cccc(O)c2)nn1` [TZM-23, 3-[1-((1R,2S,5R)-2-isopropyl-5-methylcyclohexyl)-1H-1,2,3-triazole-4-yl]phenol], 51.2 ± 16.1%.

Compound `CC(C)[C@@H]1CC[C@@H](C)C[C@H]1n1cc(-c2ccccc2)nn1` [TZM-3, 1-((1R,2S,5R)-2-isopropyl-5-methylcyclohexyl)-4-phenyl-1H-1,2,3-triazole] returned an activation at 10 µM of 51.6 ± 14%. Same read-out and setting: to `COc1cc(OC)cc(C(=O)c2cn([C@@H]3C[C@H](C)CC[C@H]3C(C)C)nn2)c1` [TZM-16, (3,5-dimethoxyphenyl) (1-((1R,2S,5R)-2-isopropyl-5-methylcyclohexyl)-1H-1,2,3-triazole-4-yl)methanone] belongs 44.5 ± 5.59%; to `CC(C)[C@@H]1CC[C@@H](C)C[C@H]1n1cc(CCc2ccccc2)nn1` [TZM-10, 1-((1R,2S,5R)-2-isopropyl-5-methylcyclohexyl)-4-phenethyl-1H-1,2,3-triazole], 45 ± 23.4%.

Take `CC(C)[C@@H]1CC[C@@H](C)C[C@H]1n1cc(-c2ccc(Oc3ccccc3)cc2)nn1` [TZM-2, 1-((1R,2S,5R)-2-isopropyl-5-methylcyclohexyl)-4-(4-phenoxyphenyl)-1H-1,2,3-triazole]: the activation at 10 µM stood at 55.6 ± 26.2%. Still for that read-out and setting: next, `CC(C)[C@@H]1CC[C@@H](C)C[C@H]1n1cc(C2(O)CCCCC2)nn1` [TZM-6, 1-(1-((1R,2S,5R)-2-isopropyl-5-methylcyclohexyl)-1H-1,2,3-triazole-4-yl)cyclohexan-1-ol]: 45.1 ± 16.9%. Still for that read-out and setting: to `CC(C)[C@@H]1CC[C@@H](C)C[C@H]1n1cc(CO)nn1` [TZM-1] belongs 45.5 ± 11.2%; to `COc1ccccc1C(=O)c1cn([C@@H]2C[C@H](C)CC[C@H]2C(C)C)nn1` [TZM-15, (1-((1R,2S,5R)-2-isopropyl-5-methylcyclohexyl)-1H-1,2,3-triazole-4-yl) (2-methoxyphenyl)methanone], 50.5 ± 4.83%. On the same count and under the same terms, next, `COc1cccc(-c2cn([C@@H]3C[C@H](C)CC[C@H]3C(C)C)nn2)c1` [TZM-24, 1-((1R,2S,5R)-2-isopropyl-5-methylcyclohexyl)-4-(3-methoxyphenyl)-1H-1,2,3-triazole]: 37.8 ± 5.49%; `COc1ccc(-c2cn([C@@H]3C[C@H](C)CC[C@H]3C(C)C)nn2)cc1` [TZM-4, 1-((1R,2S,5R)-2-isopropyl-5-methylcyclohexyl)-4-(4-methoxyphenyl)-1H-1,2,3-triazole]: 85.1 ± 33%. On to `CC(C)[C@@H]1CC[C@@H](C)C[C@H]1n1cc(C(=O)c2cccc(F)c2)nn1` [TZM-12, (3-fluorophenyl) (1-((1R,2S,5R)-2-isopropyl-5-methylcyclohexyl)-1H-1,2,3-triazole-4-yl)methanone], for which the activation at 10 µM is 57.9 ± 8.57%. On the same count and under the same terms, to `COc1ccc(C(=O)c2cn([C@@H]3C[C@H](C)CC[C@H]3C(C)C)nn2)cc1OC` [TZM-11, (3,4-dimethoxyphenyl) (1-((1R,2S,5R)-2-isopropyl-5-methylcyclohexyl)-1H-1,2,3-triazole-4-yl)methanone] belongs 53.5 ± 13.4%. On the same count and under the same terms, to `COc1ccc(C(=O)c2cn([C@@H]3C[C@H](C)CC[C@H]3C(C)C)nn2)c(OC)c1` [TZM-14, (2,4-dimethoxyphenyl) (1-((1R,2S,5R)-2-isopropyl-5-methylcyclohexyl)-1H-1,2,3-triazole-4-yl)methanone] belongs 43.8 ± 4.22%; to `COc1ccc(C(=O)c2cn([C@@H]3C[C@H](C)CC[C@H]3C(C)C)nn2)cc1` [TZM-18, (1-((1R,2S,5R)-2-isopropyl-5-methylcyclohexyl)-1H-1,2,3-triazole-4-yl) (4-methoxyphenyl)methanone], 44.6 ± 5.62%. The same measure, in the same setting: next, `CC1CCC(C(C)C)C(O)C1` (stereo not shown) [Menthol, reference compound]: 101 ± 1.66%; `CC1CC[C@@H](C(C)C)[C@H](n2cc(CCCCC#N)nn2)C1` (stereo in doubt) [TZM-22, 5-(1-((1R,2S,5S)-2-isopropyl-5-methylcyclohexyl)-1H-1,2,3-triazole-4-yl)pentanenitrile]: 57.3 ± 15.2%; `CC(C)[C@@H]1CC[C@@H](C)C[C@H]1n1cc(C(=O)c2ccc(Cl)cc2)nn1` [TZM-20, (4-chlorophenyl) (1-((1R,2S,5R)-2-isopropyl-5-methylcyclohexyl)-1H-1,2,3-triazole-4-yl)methanone]: 66.9 ± 17.5%. Compound `COCc1cn([C@@H]2C[C@H](C)CC[C@H]2C(C)C)nn1` [TZM-25, 1-((1R,2S,5R)-2-isopropyl-5-methylcyclohexyl)-4-(methoxymethyl)-1H-1,2,3-triazole] came in with an activation at 10 µM of 45.1 ± 18.6%. The same measure, in the same setting: to `COc1ccc(C(O)c2cn([C@@H]3C[C@H](C)CC[C@H]3C(C)C)nn2)cc1OC` (stereo partly drawn) [TZM-26, (3,4-dimethoxyphenyl) (1-((1R,2S,5R)-2-isopropyl-5-methylcyclohexyl)-1H-1,2,3-triazole-4-yl)methanol] belongs 50.9 ± 17.2%; to `CC(C)[C@@H]1CC[C@@H](C)C[C@H]1n1cc(-c2ccccn2)nn1` [TZM-9, 2-(1-((1R,2S,5R)-2-isopropyl-5-methylcyclohexyl)-1H-1,2,3-triazole-4-yl)pyridine], 59.1 ± 30.4%.

Compound `CC1CC[C@@H](C(C)C)[C@H](n2cc(CCCCCCCCC(=O)O)nn2)C1` (stereo in doubt) [TZM-21, 9-(1-((1R,2S,5S)-2-isopropyl-5-methylcyclohexyl)-1H-1,2,3-triazole-4-yl)-nonanoic acid] came in with an activation at 10 µM of 54 ± 14.4%. Still for that read-out and setting: next, `CC(C)[C@@H]1CC[C@@H](C)C[C@H]1n1cc(-c2ccc(-c3ccccc3)cc2)nn1` [TZM-5, 4-([1,1′-biphenyl]-4-yl)-1-((1R,2S,5R)-2-isopropyl-5-methylcyclohexyl)-1H-1,2,3-triazole]: 50.1 ± 8.25%.

Still in this assay, the particulars now being: CHO cells stably expressing TRPM8; concentrations 0.1, 1, 10 and 100 μM; sigmoid fit.
The compound `CC(C)[C@@H]1CC[C@@H](C)C[C@H]1n1cc(CCc2ccccc2)nn1` [TZM-10, 1-((1R,2S,5R)-2-isopropyl-5-methylcyclohexyl)-4-phenethyl-1H-1,2,3-triazole] registered an EC50 of 3.84 ± 2.36 µM. Regarding `COc1ccc(-c2cn([C@@H]3C[C@H](C)CC[C@H]3C(C)C)nn2)cc1` [TZM-4, 1-((1R,2S,5R)-2-isopropyl-5-methylcyclohexyl)-4-(4-methoxyphenyl)-1H-1,2,3-triazole], the EC50 was 3.47 ± 1.34 µM. The compound `COc1ccc(C(=O)c2cn([C@@H]3C[C@H](C)CC[C@H]3C(C)C)nn2)cc1OC` [TZM-11, (3,4-dimethoxyphenyl) (1-((1R,2S,5R)-2-isopropyl-5-methylcyclohexyl)-1H-1,2,3-triazole-4-yl)methanone] had a 50% effective concentration (EC50) of 9.84 ± 3.29 µM. On the same count and under the same terms, to `CC(C)[C@@H]1CC[C@@H](C)C[C@H]1n1cc(-c2ccccn2)nn1` [TZM-9, 2-(1-((1R,2S,5R)-2-isopropyl-5-methylcyclohexyl)-1H-1,2,3-triazole-4-yl)pyridine] belongs 6.23 ± 3.18 µM.

The test system of a further assay is guinea pig. The experiment in a line: In vivo tear secretion measured using phenol red threads after ocular instillation. The settings on record: instilled ocularly at 200 μM, phenol red thread 30 seconds. The source says: The in vivo activity of the selected TRPM8 activating compounds (TZM-7) has been assessed in an animal model following the protocol described in Acosta M C et al., Invest Ophthalmol Vis Sci 2014 (Corneal sensory nerve activity in an experimental model of UV keratitis. Acosta M et al., Invest Ophthalmol Vis Sci May 1; 55(6):3403-12). […] Tear secretion can be measured using phenol red threads (Zone-Quick, Menicon, Nagoya, Japan) that are applied to the nasal edge of the lower eyelid for 30 seconds (after that time, the distance of the red-dyed thread is measured in mm).
Turning to `CC1CCC(C(C)C)C(O)C1` (stereo not shown) [Menthol, reference compound], the tear secretion result is “produces an increase in tear secretion”.

The values above are taken from patent publication US10905679B2, “TRPM8 receptor agonist compounds and uses thereof” (UNIVERSIDAD MIGUEL HERNANDEZ DE ELCHE, priority 2016, dated 2021).
